Data published in ChEMBL document CHEMBL4359880, “PROTACs and Targeted Protein Degradation for Treating ALK-Mediated Cancers” (2019).

Assays:
SU-DHL-1 [1] = assay: Cytotoxicity against human SUDHL1 cells assessed as cell growth at 40 nM incubated for 2.5 days by CCk8 assay relative to control; type: functional; details: SU-DHL-1, 60 h
SU-DHL-1 [2] = assay: Cytotoxicity against human SUDHL1 cells assessed as cell growth at 100 nM incubated for 2.5 days by CCk8 assay relative to control; type: functional; details: SU-DHL-1, 60 h
SU-DHL-1 [3] = assay: Cytotoxicity against human SUDHL1 cells assessed as cell growth at 12 nM incubated for 2.5 days by CCk8 assay relative to control; type: functional; details: SU-DHL-1, 60 h
[4] = biological target: T1, von Hippel-Lindau disease tumor suppressor/ALK tyrosine kinase receptor (Homo sapiens) (UniProt Q9UM73+P40337); assay: Protac activity at VHL/ALK in human SUDHL1 cells assessed as increase in degradation of ALK at 30 nM by Western blot analysis relative to control; type: cell-based
[5] = biological target: T1, von Hippel-Lindau disease tumor suppressor/ALK tyrosine kinase receptor (Homo sapiens); assay: Protac activity at VHL/ALK in human NCI-H3122 cells assessed as increase in degradation of ALK at 500 nM by Western blot analysis relative to control; type: cell-based

T1 sequence (P40337 whole entry partner): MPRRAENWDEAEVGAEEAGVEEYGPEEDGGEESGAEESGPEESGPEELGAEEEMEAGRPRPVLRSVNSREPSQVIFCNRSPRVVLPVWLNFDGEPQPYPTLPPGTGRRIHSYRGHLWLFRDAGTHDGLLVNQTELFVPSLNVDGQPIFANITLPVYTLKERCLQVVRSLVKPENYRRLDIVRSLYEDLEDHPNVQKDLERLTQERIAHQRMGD
T1 sequence (Q9UM73 19-1620 limits assumed): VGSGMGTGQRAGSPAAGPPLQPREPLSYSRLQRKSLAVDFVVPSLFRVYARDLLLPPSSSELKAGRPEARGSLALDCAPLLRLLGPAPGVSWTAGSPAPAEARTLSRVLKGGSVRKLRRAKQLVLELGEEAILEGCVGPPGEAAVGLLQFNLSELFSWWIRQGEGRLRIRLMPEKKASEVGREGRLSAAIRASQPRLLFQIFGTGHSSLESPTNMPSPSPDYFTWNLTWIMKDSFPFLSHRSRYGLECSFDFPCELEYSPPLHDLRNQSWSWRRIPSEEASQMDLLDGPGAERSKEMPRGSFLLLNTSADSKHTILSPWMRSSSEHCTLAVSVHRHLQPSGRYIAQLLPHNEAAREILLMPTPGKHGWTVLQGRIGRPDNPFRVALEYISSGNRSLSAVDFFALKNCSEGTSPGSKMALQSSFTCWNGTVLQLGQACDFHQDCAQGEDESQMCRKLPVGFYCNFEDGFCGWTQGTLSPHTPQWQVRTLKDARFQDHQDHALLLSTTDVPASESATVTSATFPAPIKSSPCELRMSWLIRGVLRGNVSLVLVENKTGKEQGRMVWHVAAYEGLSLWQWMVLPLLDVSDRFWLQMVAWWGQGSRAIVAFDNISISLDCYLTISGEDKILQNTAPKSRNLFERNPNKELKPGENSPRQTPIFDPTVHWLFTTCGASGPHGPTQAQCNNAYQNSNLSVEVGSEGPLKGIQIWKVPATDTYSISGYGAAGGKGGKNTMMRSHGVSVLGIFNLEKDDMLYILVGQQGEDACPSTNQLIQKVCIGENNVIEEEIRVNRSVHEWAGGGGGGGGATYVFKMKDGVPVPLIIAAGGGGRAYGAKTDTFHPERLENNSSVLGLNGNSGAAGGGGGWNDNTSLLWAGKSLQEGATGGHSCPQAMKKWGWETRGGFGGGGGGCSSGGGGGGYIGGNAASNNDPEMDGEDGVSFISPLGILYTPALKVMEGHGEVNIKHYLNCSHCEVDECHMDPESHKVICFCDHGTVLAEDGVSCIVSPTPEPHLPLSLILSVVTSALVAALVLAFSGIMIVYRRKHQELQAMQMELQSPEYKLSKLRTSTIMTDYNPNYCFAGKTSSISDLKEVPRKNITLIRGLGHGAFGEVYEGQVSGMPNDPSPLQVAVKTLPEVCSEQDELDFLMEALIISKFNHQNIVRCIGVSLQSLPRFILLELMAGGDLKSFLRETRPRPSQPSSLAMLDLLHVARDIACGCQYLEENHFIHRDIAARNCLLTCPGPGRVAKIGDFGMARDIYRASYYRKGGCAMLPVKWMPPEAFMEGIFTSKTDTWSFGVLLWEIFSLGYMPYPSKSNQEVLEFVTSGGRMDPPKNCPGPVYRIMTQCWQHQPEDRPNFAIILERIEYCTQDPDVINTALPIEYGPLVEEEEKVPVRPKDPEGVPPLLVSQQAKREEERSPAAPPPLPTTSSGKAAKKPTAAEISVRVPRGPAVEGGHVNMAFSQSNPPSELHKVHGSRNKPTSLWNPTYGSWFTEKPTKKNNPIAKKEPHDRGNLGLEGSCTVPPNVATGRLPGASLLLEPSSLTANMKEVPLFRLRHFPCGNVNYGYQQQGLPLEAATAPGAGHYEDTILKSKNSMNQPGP

| SMILES | Activity [4] [%] | Activity [5] [%] | growth, % of control at 0.04 µM (SU-DHL-1 [1]) [%] | growth, % of control at 0.1 µM (SU-DHL-1 [2]) [%] | growth, % of control at 0.012 µM (SU-DHL-1 [3]) [%] |
| --- | --- | --- | --- | --- | --- |
| Cc1cc(Nc2ncc(Cl)c(Nc3ccccc3S(=O)(=O)C(C)C)n2)c(OC(C)C)cc1C1CCN(C(=O)CCCC(=O)N[C@H](C(=O)N2C[C@H](O)C[C@H]2C(=O)N[C@@H](C)c2ccc(-c3scnc3C)cc2)C(C)(C)C)CC1 |  | > 80 |  |  |  |
| Cc1cc(Nc2ncc(Cl)c(Nc3ccccc3S(=O)(=O)C(C)C)n2)c(OC(C)C)cc1C1CCN(C(=O)COCCOCC(=O)N[C@H](C(=O)N2C[C@H](O)C[C@H]2C(=O)N[C@@H](C)c2ccc(-c3scnc3C)cc2)C(C)(C)C)CC1 |  | > 80 |  |  |  |

More lines, main results first:

| Activity [4] [%] | Activity [5] [%] | SMILES | growth, % of control at 0.04 µM (SU-DHL-1 [1]) [%] | growth, % of control at 0.1 µM (SU-DHL-1 [2]) [%] | growth, % of control at 0.012 µM (SU-DHL-1 [3]) [%] |
| --- | --- | --- | --- | --- | --- |
| > 80 |  | Cc1cc(Nc2ncc(Cl)c(Nc3ccccc3S(=O)(=O)C(C)C)n2)c(OC(C)C)cc1C1CCN(CC(=O)NCCOCCOCCOCCOCCOCCNc2cccc3c2C(=O)N(C2CCC(=O)NC2=O)C3=O)CC1 (centres undefined) | 47.5 | 3.9 | 94.5 |
| > 80 |  | Cc1cc(Nc2ncc(Cl)c(Nc3ccccc3S(=O)(=O)C(C)C)n2)c(OC(C)C)cc1C1CCN(CC(=O)NCCOCCOCCOCCOCCNc2cccc3c2C(=O)N(C2CCC(=O)NC2=O)C3=O)CC1 (centres undefined) | 67 | 3.5 | 97.7 |
| > 80 |  | Cc1cc(Nc2ncc(Cl)c(Nc3ccccc3S(=O)(=O)C(C)C)n2)c(OC(C)C)cc1C1CCN(CC(=O)NCCNc2cccc3c2C(=O)N(C2CCC(=O)NC2=O)C3=O)CC1 (centres undefined) | 30.5 | 2.1 | 80.6 |
